Data taken from patent US20040259096A1, “Receptor capture assay” (priority 2001, published 2004).

How the values were obtained:
[1] = biological target: T1, AhR (Cavia porcellus, UniProt Q6J287); assay: Receptor capture assay, real-time PCR, rodent cytosol as source of AhR; assay type: biochemical; design: EC50 of dose-response curve; other: TCDD and BNF curves performed simultaneously; slope of dose-response curve; conditions: TCDD and BNF curves performed simultaneously
T1 sequence (Q6J287 1-846): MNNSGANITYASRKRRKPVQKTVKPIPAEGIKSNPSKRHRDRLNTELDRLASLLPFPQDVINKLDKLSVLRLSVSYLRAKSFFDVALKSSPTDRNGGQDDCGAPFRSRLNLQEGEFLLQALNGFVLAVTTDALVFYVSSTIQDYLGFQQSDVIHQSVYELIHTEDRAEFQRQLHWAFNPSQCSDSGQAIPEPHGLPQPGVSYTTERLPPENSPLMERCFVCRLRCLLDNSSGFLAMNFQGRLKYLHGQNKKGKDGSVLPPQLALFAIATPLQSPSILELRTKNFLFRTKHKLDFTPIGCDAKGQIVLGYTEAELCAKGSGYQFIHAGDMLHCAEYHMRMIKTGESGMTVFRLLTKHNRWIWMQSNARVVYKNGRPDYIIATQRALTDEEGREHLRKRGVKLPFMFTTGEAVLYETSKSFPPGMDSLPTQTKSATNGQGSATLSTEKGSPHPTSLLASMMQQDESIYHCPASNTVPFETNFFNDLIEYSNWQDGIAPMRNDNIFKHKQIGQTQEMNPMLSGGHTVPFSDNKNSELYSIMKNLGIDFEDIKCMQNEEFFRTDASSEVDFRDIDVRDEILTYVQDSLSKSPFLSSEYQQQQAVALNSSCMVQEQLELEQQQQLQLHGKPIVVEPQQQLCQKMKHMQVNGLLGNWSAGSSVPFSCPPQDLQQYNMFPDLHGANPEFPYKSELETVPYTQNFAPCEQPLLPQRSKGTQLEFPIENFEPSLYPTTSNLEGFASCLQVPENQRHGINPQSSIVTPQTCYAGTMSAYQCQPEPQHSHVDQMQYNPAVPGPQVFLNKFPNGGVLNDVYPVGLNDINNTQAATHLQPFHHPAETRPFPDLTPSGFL
Method: A set of calibrators consisting of 5000, 2500, 1250, […], 313, 156, and 78 parts per trillion (ppt or pg/ml) 2,3,7,8-tetrachlorodibenzo-p-dioxin (TCDD) was prepared in methanol. In addition to TCDD a set of calibrators for AhR agonist, beta-naphthoflavone (BNF) was prepared and analyzed in the assay. Separately, 25 ul of 1:50,000 dilution of 10 uM stock nucleic acid-tracer was added per 1 ml of rodent cytosol, which was the source of AhR, and was aliquoted into glass tubes. The standards were diluted 1:20 into 50-100 ul of rodent cytosol, and incubated for 1-2 hr at room temperature to 37° C. Following incubation, 40 to 100 ul of the reaction was transferred to each well of the antibody-coated Capture Strip and incubated on a shaking platform for 30 min to 1 hr at room temperature. The Capture Strips were washed 5 times with Wash Buffer B, and aspirated; optionally soaking wells for 30 sec-5 min with wash buffer during each cycle. Taqman® Universal PCR Master Mix, primers, and Taqman® probe (Applied Biosystems, Calif.) were added, and adhesive cover applied. PCR was performed and analyzed using an ABI PRISM® 7700, using default settings: 50° C., 2 min, 95° C. 10 min, and 40 cycles of [95° C., 15 sec, 60° C., 60 sec]. A threshold cycle (Ct) was determined for each reaction The Ct represents the PCR cycle at which an increase in reporter fluorescence above baseline signal can first be detected.

[2] = system: Ah receptor; assay: Detecting activated Ah receptor in nuclear extracts of treated Hepa 1c1c7 cells; assay type: cell-based, murine; conditions: Hepa 1c1c7 cells treated with 10 μM BNF for 1 hour
Method: Hepa 1c1c7 cells were grown until nearly confluent in Dulbecco's modified Eagle's medium and 8% fetal bovine serum. The cells were treated with 10 μM beta-naphthoflavone (BNF) in DMSO for 1 hour. The cells were then harvested after two washes with ice-cold PBS by centrifugation at 1000×g. The cells were then suspended in 5 packed cell pellet volumes of 10 mM Hepes, pH 7.5 and allowed to stand for 10 min.
The suspended cells were again collected by centrifugation and resuspended in two packed cell pellet volumes of 25 mM Hepes, pH 7.5, 3 mM MgCl2, 1 mM DTT and then lysed with 10 strokes of a Kontes all glass Dounce homogenizer (B type pestle). The resulting homogenate was checked microscopically to confirm cell lysis and then centrifuged for 10 min at 1000×g to pellet the nuclei.
The nuclear extract was prepared as follows. The nuclei were resuspended and incubated for 30 min in 25 mM Hepes, pH 7.5, 3 mM MgCl2, 1 mM DTT containing 0.4 M KCl. The suspension was occasionally vortexed during the 30 min incubation and centrifuged in a microfuge at high speed. Glycerol was added to the supernatant to a 10% concentration. The nuclear extract was diluted to lower the salt concentration prior to testing. The diluent was Hepa 1c1c7 cell extract that was previously boiled in order to inactivate protein factors and cooled to room temperature. […]

[3] = system: Ah receptor; assay: Receptor capture assay employing anti-ARNT magnetic microparticles; assay type: biochemical; conditions: 1 μl of 1 nM beta-naphthoflavone
Method: Activation of the Ah receptor with dose was performed in a microtiter strip containing 50 μl of Ah receptor preparation, 1 μl of 200 μg/ml biotinylated ARNT, and 1 μl of 1 nM beta-naphthoflavone and incubated for 1 hr at 30° C. To minimize non-specific interactions, 1-2 μg of salmon sperm DNA was added to the activated complex, along with NaCl to a final concentration of 60 mM. After 10 in room temperature, the nucleic acid-tracer (50 fmole) was added, and the reaction allowed to incubate for an additional 10 min at room temperature. Five μl of a 10% solution of microparticles coated with anti-ARNT antibody was added to each well and incubated for 30 min at room temperature on a Wallac microtiter plate shaker. The wells were washed using a using a LifeSep 96P (Dexter, Elk Grove Village, Ill.) magnet designed for separating magnetic particles in a microtiter plate format The strip was placed on the magnetic separator for three minutes. The beads had migrated to the side of the well by this time and the supernatant was removed by aspiration. The beads were washed four additional times with 150 μl of Wash Buffer B. The beads were captured, supernatant removed, and resuspended in the PCR reaction mix and amplified as in Example 2, B. The amplified product was analyzed by gel electrophoresis.

Row | SMILES | slope of dose-response curve [1] | EC50 ([1]; read-out: EC50 of dose-response curve) [nM] | PCR-amplified DNA over nuclear extracts from DMSO-treated cells [2] | amplified DNA over DMSO vehicle controls (gel electrophoresis) [3]
1 | O=c1cc(-c2ccccc2)oc2ccc3ccccc3c12 [BNF, beta-naphthoflavone] | −0.7637 | 0.04 | significant and reproducible increase in PCR-amplified DNA | significant increase in DNA
2 | Clc1cc2c(cc1Cl)Oc1cc(Cl)c(Cl)cc1O2 [TCDD, 2,3,7,8-tetrachlorodibenzo-p-dioxin] | −1.195 | – | – | –
